ChEMBL document CHEMBL1201862, “PubChem BioAssay data set” (2004)
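Exposure lasted 48 hours, with cells grown in 96-well plates and compounds tested at five concentrations. Here, GI50 denotes the concentration required for 50% inhibition of growth.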 The source made the active and inactive calls. Rule as the data show it: active = GI50 up to about 1.1 µM and inactive = higher.

Experiments:
Test in all cases: growth of human tumour cells (NCI), 48 h
786-0 = tested on: 786-0
A498 = tested on: A498
A549 = tested on: A549
ACHN = tested on: ACHN
BT-549 = tested on: BT-549
CAKI-1 = tested on: CAKI-1
CCRF-CEM = tested on: CCRF-CEM
COLO 205 = tested on: COLO 205
DU-145 = tested on: DU-145
EKVX = tested on: EKVX
HCC 2998 = tested on: HCC 2998
HCT-116 = tested on: HCT-116
HCT-15 = tested on: HCT-15
HL-60 = tested on: HL-60
HOP-62 = tested on: HOP-62
HOP-92 = tested on: HOP-92
HT-29 = tested on: HT-29
Hs-578T = tested on: Hs-578T
IGROV-1 = tested on: IGROV-1
K562 = tested on: K562
KM12 = tested on: KM12
LOX IMVI = tested on: LOX IMVI
M14 = tested on: M14
MCF7 = tested on: MCF7
MDA-MB-231 = tested on: MDA-MB-231
MDA-MB-435 = tested on: MDA-MB-435
MDA-N = tested on: MDA-N
MOLT-4 = tested on: MOLT-4
Malme-3M = tested on: Malme-3M
NCI-H226 = tested on: NCI-H226
NCI-H23 = tested on: NCI-H23
NCI-H460 = tested on: NCI-H460
NCI-H522 = tested on: NCI-H522
NCI/ADR-RES = tested on: NCI/ADR-RES
OVCAR-3 = tested on: OVCAR-3
OVCAR-4 = tested on: OVCAR-4
OVCAR-5 = tested on: OVCAR-5
OVCAR-8 = tested on: OVCAR-8
PC-3 = tested on: PC-3
RXF 393 = tested on: RXF 393
SF-268 = tested on: SF-268
SF-295 = tested on: SF-295
SF-539 = tested on: SF-539
SK-MEL-28 = tested on: SK-MEL-28
SK-MEL-2 = tested on: SK-MEL-2
SK-MEL-5 = tested on: SK-MEL-5
SK-OV-3 = tested on: SK-OV-3
SN12C = tested on: SN12C
SNB-19 = tested on: SNB-19
SNB-75 = tested on: SNB-75
SR = tested on: SR
SW-620 = tested on: SW-620
T47D = tested on: T47D
TK-10 = tested on: TK-10
U-251 = tested on: U-251
UACC-257 = tested on: UACC-257
UACC-62 = tested on: UACC-62
UO-31 = tested on: UO-31
RPMI-8226 = tested on: RPMI-8226

Measured: GI50

CC(C)C(C/C=C1/CC(CO)(COC(=O)C(C)(C)C)OC1=O)C(C)C (stereo unspecified)
16.9 µM: HCT-15
active: A549 1.09 µM | COLO 205 0.0678 µM | HL-60 0.105 µM | HOP-62 1.03 µM | Hs-578T 0.735 µM | K562 0.171 µM | MOLT-4 0.514 µM | SF-539 0.598 µM
inactive: 786-0 3.23 µM | A498 7.67 µM | ACHN 5.9 µM | BT-549 13.5 µM | CAKI-1 3.3 µM | CCRF-CEM 12.1 µM | DU-145 11.1 µM | EKVX 8.17 µM | HCC 2998 3.1 µM | HCT-116 14.3 µM | HOP-92 10.4 µM | HT-29 16.7 µM | IGROV-1 16.2 µM | KM12 13.8 µM | LOX IMVI 12.3 µM | M14 11.7 µM | MCF7 18.4 µM | MDA-MB-231 3.25 µM | MDA-MB-435 8.59 µM | MDA-N 4.3 µM | Malme-3M 3.62 µM | NCI-H226 7.57 µM | NCI-H23 9.51 µM | NCI-H460 7.76 µM | NCI-H522 12.6 µM | NCI/ADR-RES 15.7 µM | OVCAR-3 15.6 µM | OVCAR-4 16.6 µM | OVCAR-5 11.6 µM | OVCAR-8 19 µM | PC-3 6.24 µM | RXF 393 15.6 µM | SF-268 10.8 µM | SF-295 2.61 µM | SK-MEL-28 15.9 µM | SK-MEL-2 15.1 µM | SK-MEL-5 4.52 µM | SK-OV-3 16.7 µM | SN12C 11.1 µM | SNB-19 12.9 µM | SNB-75 5.45 µM | SR 14.9 µM | SW-620 3.31 µM | T47D 4.52 µM | TK-10 3.72 µM | U-251 12.6 µM | UACC-257 16.8 µM | UACC-62 12.9 µM | UO-31 4.07 µM

CC1(c2cccc(Cl)c2)CC(c2cccc(Cl)c2)=C(C#N)C(=C(C#N)C#N)N1 (stereo unspecified)
inactive: 786-0 15.7 µM | A498 20.3 µM | A549 19.5 µM | ACHN 17.8 µM | BT-549 22.8 µM | CAKI-1 16.5 µM | CCRF-CEM 2.92 µM | COLO 205 13.2 µM | DU-145 15.8 µM | EKVX 22.1 µM | HCC 2998 15.8 µM | HCT-116 16.6 µM | HL-60 18.4 µM | HOP-62 19.4 µM | HOP-92 6.19 µM | HT-29 27.4 µM | Hs-578T 9.75 µM | IGROV-1 16.7 µM | K562 14.3 µM | KM12 18 µM | LOX IMVI 19.8 µM | M14 17.1 µM | MCF7 20.6 µM | MDA-MB-231 22.3 µM | MDA-MB-435 17 µM | MDA-N 20.1 µM | MOLT-4 12.5 µM | Malme-3M 17.1 µM | NCI-H226 18.7 µM | NCI-H23 17.4 µM | NCI-H460 27.6 µM | NCI/ADR-RES 18.9 µM | OVCAR-3 10.3 µM | OVCAR-4 14.2 µM | OVCAR-5 24.2 µM | OVCAR-8 17.9 µM | PC-3 17.6 µM | RPMI-8226 5.28 µM | RXF 393 14.8 µM | SF-268 4.62 µM | SF-295 16 µM | SF-539 19.1 µM | SK-MEL-28 20.7 µM | SK-MEL-2 21.7 µM | SK-MEL-5 14.6 µM | SK-OV-3 18.7 µM | SN12C 19.4 µM | SNB-19 17.9 µM | SNB-75 19.1 µM | SR 14.3 µM | SW-620 12.1 µM | T47D 13.2 µM | TK-10 17.7 µM | U-251 16.4 µM | UACC-257 20.1 µM | UACC-62 17 µM | UO-31 15.7 µM
16 µM: HCT-15
